Measured values as given in patent US20230364111A1 (priority 2020, published 2023).
Entries after “also recorded” stand apart in the source; their conditions may differ. Like-named read-outs stand apart in the source and are kept apart here.

Tests used:
[1] = system: HCV NN (genotype-1b) subgenomic replicon; assay type: cell-based, Hepatitis C virus (HCV); conditions: 10 μM Oxy210; 48 h; LucNeo #2 cells
HDV = assay type: cell-based, Hepatitis D virus (HDV); conditions: 10 μM Oxy210 for six days; 200 nM MyrB; HepG2-hNTCP-C4 cells
SARS-CoV-2 [2] = assay: SARS-CoV-2-induced cytopathic effect (CPE) in VeroE6/TMPRSS2 cells; assay type: cell-based
[3] = system: double-membrane vesicles (DMVs) in SARS-CoV-2-infected cells; assay: Electron microscopy of double-membrane vesicle (DMV) formation; assay type: cell-based; conditions: 10 μM Oxy210, Oxy232 (10 μM)
[4] = single oral dose 200 mg/kg
[5] = system: SARS-CoV-2 (isolate USA WA1/2020); assay: SARS-CoV-2 infection of Calu-3 cells (dsRNA+ cells, automated microscopy); assay type: cell-based; conditions: Severe acute respiratory syndrome coronavirus 2, SARS-CoV-2 USA WA1/2020, MOI=0.5, 48 h post-infection, Calu-3
Method: (§1) FIGS. 12A-12C depict dose-response curves for Oxy232. (FIG. 12A) Secreted viral RNA in the VeroE6 culture supernatant 24 h post-inoculation was quantified by real-time RT-PCR. Cell viability of Oxy232 treated cells evaluated with an MTT assay. (FIG. 12B) Secreted viral RNA of 3 SARS-CoV-2 strains in the VeroE6 culture supernatant 24 h post-inoculation was quantified by real-time RT-PCR. (FIG. 12C) Calu-3 (ATCC) cells were pretreated with Oxy232 for 2 hours prior to continuous infection with SARS-CoV-2 (isolate USA WA1/2020) at MOI=0.5. 48 h post-infection, cells were fixed, immune-strained, and imaged by automated microscopy for infection (dsRNA+ cells/total cell number) and cell number.
According to a previously published report (Ohashi et al., Identification of Anti-Severe Acute Respiratory Syndrome-Related Coronavirus 2 (SARS-CoV-2) Oxysterol Derivatives In Vitro. Int J Mol Sci. 2021; 22(6):3163. PMCID: PMC8003796) inventors have tested a collection of naturally occurring and semisynthetic oxysterol derivatives in a SARS-CoV-2 cell culture infection assay in VeroE6/TMPRSS2 cells. […] See, Ohashi et al., Int J Mol Sci. 2021; 22(6):3163 and Dittmar et al. Drug repurposing screens reveal cell-type-specific entry pathways and FDA-approved drugs active against SARS-Cov-2. Cell Rep. […] PMCID: PMC7985926. […] Without wishing to be bound by a theory, biological activities of oxysterols, including measures of cell viability, can heavily depend on in vitro assay conditions, such as the fetal bovine serum concentration or the duration of pretreatment with the compounds, among other factors, that may not translate to the in vivo safety of the compounds.

TGFβ signaling = conditions: previously reported [16]; fibroblastic cells and tumor cells; cited from earlier work
Hedgehog (Hh) signaling = conditions: previously reported [16]; fibroblastic cells and tumor cells; cited from earlier work
in vivo = conditions: balb/c, mouse, po, 200 mg/kg
[6] = system: SARS-CoV-2 TY7-501 (Brazil strain); assay: SARS-CoV-2 TY7-501 strain infection in VeroE6/TMPRSS2 cells; assay type: cell-based; conditions: viral RNA 24 h post-inoculation
Method: as §1
(§2) According to a previously published report (Ohashi et al., Identification of Anti-Severe Acute Respiratory Syndrome-Related Coronavirus 2 (SARS-CoV-2) Oxysterol Derivatives In Vitro. Int J Mol Sci. 2021; 22(6):3163. PMCID: PMC8003796) inventors have tested a collection of naturally occurring and semisynthetic oxysterol derivatives in a SARS-CoV-2 cell culture infection assay in VeroE6/TMPRSS2 cells. […] See, Ohashi et al., Int J Mol Sci. 2021; 22(6):3163 and Dittmar et al. Drug repurposing screens reveal cell-type-specific entry pathways and FDA-approved drugs active against SARS-Cov-2. Cell Rep. […] PMCID: PMC7985926. […]

Calu-3 cells = conditions: at higher concentrations; automated microscopy
SARS-CoV-2 [7] = assay: Time of addition assay, SARS-CoV-2 viral RNA; assay type: cell-based; conditions: 15 μM RDV, 15 μM CLQ, 10 μM Oxy210, 10 μM Oxy133
[8] = system: idiopathic pulmonary fibrosis (IPF); assay: Mouse model of idiopathic pulmonary fibrosis (IPF); assay type: in vivo; conditions: Parhami et al., unpublished observations
SARS-CoV-2 [9] = assay type: cell-based
[10] = assay type: in vivo, mice; conditions: chow diet containing 4 mg Oxy210/g of food; 96 h
SARS-CoV-2 Wk-521 strain = assay: SARS-CoV-2 infection assay, viral RNA in culture supernatant (VeroE6/TMPRSS2 cells); assay type: cell-based
VeroE6/TMPRSS2 cells = conditions: read-out: CC50 (VeroE6); VeroE6
[11] = system: SARS-CoV-2 TY8-612 (South Africa strain); assay: SARS-CoV-2 TY8-612 strain infection in VeroE6/TMPRSS2 cells; assay type: cell-based; conditions: viral RNA 24 h post-inoculation
Method: as §1, §2

[12] = In vivo safety and tolerability in mice; conditions: mouse
in vitro [13] = conditions: human
in vitro [14] = conditions: African green monkey

## C[C@]12CC[C@H]3[C@@H](CC=C4C[C@@H](O)CC[C@@]43C)[C@@H]1CC[C@@H]2[C@](C)(O)CCc1cccnc1 [Oxy210, (3S,8S,9S,10R,13S,14S,17S)-17-((R)-2-hydroxy-4-(pyridin-3-yl)butan-2-yl)-10,13-dimethyl-2,3,4,7,8,9,10,11,12,13,14,15,16,17-tetradecahydro-1H-cyclopenta[a]phenanthren-3-ol]
[1]
  HCV replication (luciferase activity): reduced the DMV-dependent RNA replication of HCV; also recorded: Antiviral effects of Oxy210 were also observed during the replication of HCV
HDV
  HDV replication / infection (HDV RNA, real-time RT-PCR): antiviral activity was not observed in HDV infection
SARS-CoV-2 [2]; 48 h post-inoculation, 10 μM RDV, 30 μM cholesterol, 30 μM 7-KC, 10 μM Oxy133, 10 μM Oxy210, MOI 0.001
  virus-induced CPE: alleviates the virus-induced CPE; also recorded: blocked
SARS-CoV-2 [2]; oxy8 7.5 uM, oxy16 20 uM, oxy186 20 uM, oxy210 10 uM, 48 h, VeroE6/TMPRSS2
  SARS-CoV-2-induced cytopathic effect: protected cells from cytopathic effect
[3]
  DMV formation in SARS-CoV-2-infected cells: disrupting the formation of double-membrane vesicles; also recorded: reduced viral replication and the formation of double-membrane vesicles; also recorded: remarkably reduced the DMV formation; also recorded: reduced the formation of DMVs; also recorded: substantially reduced; also recorded: inhibit DMV formation
[4]; plasma
  Tmax: 1 h
[4]; read-out: peak plasma concentration (Cmax), 200 mg/kg
  Cmax: 19.4 µM
[4]
  peak plasma concentration (Cmax): 8,155 ng/mL
  tolerability: well tolerated
[5]; read-out: IC50 (Calu-3)
  IC50: 1.5 µM
[5]; read-out: IC90 (Calu-3)
  IC90: 4.24 µM
TGFβ signaling
  TGFβ signaling: inhibited
Hedgehog (Hh) signaling
  Hedgehog (Hh) signaling: inhibited
In vivo
  AUC: 29300 ng·h/mL
  Cmax: 19 µM
[6]
  activity against the TY7-501 strain: undiminished activity
Calu-3 cells
  cell viability in Calu-3 cells: do affect cell viability
SARS-CoV-2 [7]; 24 h
  viral RNA, compound present during the whole life cycle: clearly reduced viral RNA levels
SARS-CoV-2 [7]; added 2 h post-inoculation for 21 h
  viral RNA, compound present post-entry: clearly reduced viral RNA levels; also recorded: predominantly inhibits the post-entry process
[8]
  effects in a mouse model of idiopathic pulmonary fibrosis (IPF): protective effects
SARS-CoV-2 [9]
  SARS-CoV-2 propagation / spread of infection (viral N protein, immunofluorescence): blocked
[10]
  adverse effects / body weight: No adverse effects or significant loss of body weight
SARS-CoV-2 Wk-521 strain; 24 h post-inoculation, natural oxysterols up to 30 μM, semi-synthetic up to 15 μM
  viral RNA in the culture supernatant: reduced viral RNA level in a dose-dependent manner
SARS-CoV-2 Wk-521 strain; Severe acute respiratory syndrome coronavirus 2, Vero C1008, SARS-CoV-2, VeroE6, read-out: IC50 (VeroE6)
  IC50: 5.5 µM
SARS-CoV-2 Wk-521 strain; Severe acute respiratory syndrome coronavirus 2, Vero C1008, SARS-CoV-2, VeroE6, read-out: IC90 (VeroE6)
  IC90: 8.6 µM
SARS-CoV-2 Wk-521 strain; Severe acute respiratory syndrome coronavirus 2, VeroE6/TMPRSS2, 24 h, SARS-CoV-2 viral RNA in culture supernatant, 24 h post-inoculation, VeroE6/TMPRSS2 cells, read-out: IC90
  IC90: 8.6 µM
SARS-CoV-2 Wk-521 strain; Severe acute respiratory syndrome coronavirus 2, SARS-CoV-2 viral RNA in culture supernatant, 24 h post-inoculation, VeroE6/TMPRSS2 cells, read-out: IC50
  IC50: 5.5 µM
SARS-CoV-2 Wk-521 strain; at 15 μM
  reduction of viral RNA production at the maximum: 99.4%
SARS-CoV-2 Wk-521 strain; cell-based assay, VeroE6/TMPRSS2
  anti-SARS-CoV-2 activity: superior anti-SARS-CoV-2 activity; also recorded: robust anti-SARS-CoV-2 activity
SARS-CoV-2 Wk-521 strain; oxysterol derivatives at 10 or 30 uM, 24 h post-inoculation, VeroE6/TMPRSS2
  viral RNA levels in the culture supernatant: strongly reduced viral RNA levels
SARS-CoV-2 Wk-521 strain; statement in words
  SARS-CoV-2 propagation in cultured cells: potently inhibits the SARS-CoV-2 propagation
  SARS-CoV-2 replication: drastically reduced SARS-CoV-2 replication; also recorded: inhibits the SARS-CoV-2 genome replication; also recorded: potent replication inhibitor
SARS-CoV-2 Wk-521 strain; various concentrations, VeroE6/TMPRSS2
  antiviral effect against SARS-CoV-2 (dose response, viral RNA): highly potent antiviral effect
VeroE6/TMPRSS2 cells
  CC50: > 15 µM
[11]
  activity against the TY8-612 strain: undiminished activity
[12]
  in vivo safety and tolerability in mice: excellent in vivo safety and tolerability
In vitro [13]
  CC50: 8.3 µM
In vitro [14]
  CC50: > 15 µM
